One assay addresses GLP-1 Receptor (Homo sapiens, UniProt P43220). The experiment in a line: GLP-1R agonist cAMP stimulation assay (HEK293/GLP1R/CRE-LUC cells, HTRF cAMP dynamic 2 kit). It is filed as cell-based. Particulars: HEK293/CRE-Luc cell line (HDB) stably expressing GLP-1 Receptor; 30 min incubation at 37° C.; read-out: GLP1R cAMP Stimulation DR: EC50 (nM) [Species: Human, Assay Cell Line: HDB]. The procedure: Activation of GLP-1 receptor is known to stimulate cyclic AMP (cAMP) production in cells which indicates primary coupling to the Gαs subunit of the G protein heterotrimeric complex.
To optimize functional activity directed toward Gαs coupling, a HEK293/CRE-Luc cell line developed by HDB stably expressing the GLP-1 Receptor was used. 200× concentration of compound working solutions were prepared (Agilent Technologies Bravo) with ½ log serial dilution in 384-well Echo LDV plate (Labcyte, Cat #LP-0200). 50 nL/well 200× concentration of compound working solutions were moved to 384-well white low volume plate (Greiner, Cat #784075) using Labcyte ECHO550. 1×10^5 cells/mL HEK293/GLP1R/CRE-LUC(HD Biosciences) cell suspensions prepared with assay buffer[DPBS containing 0.5 mM IBMX(Sigma, Cat #15879) and 0.1% BSA(GENVIEW, Cat #FA016-100 g)], 10 uL cell suspensions were added to each well of previous generated assay plate which already contains 50 nl compound at 200× concentration using ThermoFisher Multidrop Combi(1000 cells/well). Seal the plate and incubate at 37° C. with 5% CO2 for 30 min.
After incubation the cAMP assay signal was generated using cAMP dynamic 2 Kit (Cisbio). 5 μL cAMP-d2 working solution was added to each well, followed with 5 μL Anti-cAMP antibody-cryptate working solution added to each well using ThermoFisher Multidrop Combi. Incubate at room temperature for 1 hour protected from light. Read the fluorescence at 665 and 615 nm with Reader PerkinElmer EnVision.
% Activity=100%×(mean RLU of test sample−mean RLU of vehicle control)/(mean RLU of MAX control−mean RLU of vehicle control))
GLP-1 Receptor, sequence (P43220 24-463): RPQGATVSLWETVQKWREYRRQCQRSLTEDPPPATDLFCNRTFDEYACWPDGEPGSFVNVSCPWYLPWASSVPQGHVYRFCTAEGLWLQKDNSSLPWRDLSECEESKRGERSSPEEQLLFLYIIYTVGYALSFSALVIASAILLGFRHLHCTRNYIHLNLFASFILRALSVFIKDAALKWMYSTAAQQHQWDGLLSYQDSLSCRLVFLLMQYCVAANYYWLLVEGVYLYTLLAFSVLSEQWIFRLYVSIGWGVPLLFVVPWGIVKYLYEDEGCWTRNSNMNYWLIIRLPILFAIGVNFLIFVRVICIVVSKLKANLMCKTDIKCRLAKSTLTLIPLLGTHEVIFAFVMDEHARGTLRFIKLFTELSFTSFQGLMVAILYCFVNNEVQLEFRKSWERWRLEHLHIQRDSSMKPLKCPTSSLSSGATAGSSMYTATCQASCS
Regarding `Cc1cc(-n2nc3c(c2-n2ccn(-c4cccc(CS(C)(=O)=O)c4)c2=O)[C@H](C)N(C(=O)c2cc4cc(C5CCOCC5)ccc4n2[C@@]2(c4noc(=O)[nH]4)C[C@@H]2C)CC3)cc(C)c1F` [Compound 102a, 3-((1S,2S)-1-(2-((S)-2-(4-fluoro-3,5-dimethylphenyl)-4-methyl-3-(3-(3-((methylsulfonyl)methyl)phenyl)-2-oxo-2,3-dihydro-1H-imidazol-1-yl)-4,5,6,7-tetrahydro-2H-pyrazolo[4,3-c]pyridine-5-carbonyl)-5-(tetrahydro-2H-pyran-4-yl)-1H-indol-1-yl)-2-methylcyclopropyl)-1,2,4-oxadiazol-5(4H)-one], the EC50 worked out at 0.27 nM.
On to `CCS(=O)(=O)Cc1ccc(-n2ccn(-c3c4c(nn3-c3cc(C)c(F)c(C)c3)CCN(C(=O)c3cc5cc(C6CCOCC6)ccc5n3[C@@]3(c5noc(=O)[nH]5)C[C@@H]3C)[C@H]4C)c2=O)cc1` [Compound 103a, 3-((1S,2S)-1-(2-((S)-3-(3-(4-((ethylsulfonyl)methyl)phenyl)-2-oxo-2,3-dihydro-1H-imidazol-1-yl)-2-(4-fluoro-3,5-dimethylphenyl)-4-methyl-4,5,6,7-tetrahydro-2H-pyrazolo[4,3-c]pyridine-5-carbonyl)-5-(tetrahydro-2H-pyran-4-yl)-1H-indol-1-yl)-2-methylcyclopropyl)-1,2,4-oxadiazol-5(4H)-one], for which the EC50 was found to be 0.065 nM.
On the same count and under the same terms, as for `CNS(=O)(=O)c1ccc(-n2ccn(-c3c4c(nn3-c3cc(C)c(F)c(C)c3)CCN(C(=O)c3cc5cc(C6CCOCC6)ccc5n3[C@@]3(c5noc(=O)[nH]5)C[C@@H]3C)[C@H]4C)c2=O)cc1` [Compound 104a, 4-(3-((S)-2-(4-fluoro-3,5-dimethylphenyl)-4-methyl-5-(1-((1S,2S)-2-methyl-1-(5-oxo-4,5-dihydro-1,2,4-oxadiazol-3-yl)cyclopropyl)-5-(tetrahydro-2H-pyran-4-yl)-1H-indole-2-carbonyl)-4,5,6,7-tetrahydro-2H-pyrazolo[4,3-c]pyridin-3-yl)-2-oxo-2,3-dihydro-1H-imidazol-1-yl)-N-methylbenzenesulfonamide], the figure is 0.081 nM.
Same read-out and setting: as for `Cc1cc(-n2nc3c(c2-n2ccn(-c4ccc(NS(C)(=O)=O)cc4)c2=O)[C@H](C)N(C(=O)c2cc4cc(C5CCOCC5)ccc4n2[C@@]2(c4noc(=O)[nH]4)C[C@@H]2C)CC3)cc(C)c1F` [Compound 105a, N-(4-(3-((S)-2-(4-fluoro-3,5-dimethylphenyl)-4-methyl-5-(1-((1S,2S)-2-methyl-1-(5-oxo-4,5-dihydro-1,2,4-oxadiazol-3-yl)cyclopropyl)-5-(tetrahydro-2H-pyran-4-yl)-1H-indole-2-carbonyl)-4,5,6,7-tetrahydro-2H-pyrazolo[4,3-c]pyridin-3-yl)-2-oxo-2,3-dihydro-1H-imidazol-1-yl)phenyl)methanesulfonamide], the figure is 0.036 nM.
As for `Cc1cc(-n2nc3c(c2-n2ccn(-c4cccc(N5CCCS5(=O)=O)c4)c2=O)[C@H](C)N(C(=O)c2cc4cc(C5CCOCC5)ccc4n2[C@@]2(c4noc(=O)[nH]4)C[C@@H]2C)CC3)cc(C)c1F` [Compound 106a, 3-((1S,2S)-1-(2-((S)-3-(3-(3-(1,1-dioxidoisothiazolidin-2-yl)phenyl)-2-oxo-2,3-dihydro-1H-imidazol-1-yl)-2-(4-fluoro-3,5-dimethylphenyl)-4-methyl-4,5,6,7-tetrahydro-2H-pyrazolo[4,3-c]pyridine-5-carbonyl)-5-(tetrahydro-2H-pyran-4-yl)-1H-indol-1-yl)-2-methylcyclopropyl)-1,2,4-oxadiazol-5(4H)-one], the EC50 turned out to be 0.7 nM.
As to `Cc1cc(-n2nc3c(c2-n2ccn(-c4ccc(N5CCCS5(=O)=O)cc4)c2=O)[C@H](C)N(C(=O)c2cc4cc(C5CCOCC5)ccc4n2[C@@]2(c4noc(=O)[nH]4)C[C@@H]2C)CC3)cc(C)c1F` [Compound 107a, 3-((1S,2S)-1-(2-((S)-3-(3-(4-(1,1-dioxidoisothiazolidin-2-yl)phenyl)-2-oxo-2,3-dihydro-1H-imidazol-1-yl)-2-(4-fluoro-3,5-dimethylphenyl)-4-methyl-4,5,6,7-tetrahydro-2H-pyrazolo[4,3-c]pyridine-5-carbonyl)-5-(tetrahydro-2H-pyran-4-yl)-1H-indol-1-yl)-2-methylcyclopropyl)-1,2,4-oxadiazol-5(4H)-one], the EC50 stood at 0.18 nM.
As to `Cc1cc(-n2nc3c(c2-n2ccn(-c4ccc(S(=O)(=O)C5CC5)cc4)c2=O)[C@H](C)N(C(=O)c2cc4cc(C5CCOCC5)ccc4n2[C@@]2(c4noc(=O)[nH]4)C[C@@H]2C)CC3)cc(C)c1F` [Compound 108a, 3-((1S,2S)-1-(2-((S)-3-(3-(4-(cyclopropylsulfonyl)phenyl)-2-oxo-2,3-dihydro-1H-imidazol-1-yl)-2-(4-fluoro-3,5-dimethylphenyl)-4-methyl-4,5,6,7-tetrahydro-2H-pyrazolo[4,3-c]pyridine-5-carbonyl)-5-(tetrahydro-2H-pyran-4-yl)-1H-indol-1-yl)-2-methylcyclopropyl)-1,2,4-oxadiazol-5(4H)-one], the EC50 is 0.043 nM.
Regarding `Cc1cc(-n2nc3c(c2-n2ccn(-c4cccc(CCS(C)(=O)=O)c4)c2=O)[C@H](C)N(C(=O)c2cc4cc(C5CCOCC5)ccc4n2[C@@]2(c4noc(=O)[nH]4)C[C@@H]2C)CC3)cc(C)c1F` [Compound 109a, 3-((1S,2S)-1-(2-((S)-2-(4-fluoro-3,5-dimethylphenyl)-4-methyl-3-(3-(3-(2-(methylsulfonyl)ethyl)phenyl)-2-oxo-2,3-dihydro-1H-imidazol-1-yl)-4,5,6,7-tetrahydro-2H-pyrazolo[4,3-c]pyridine-5-carbonyl)-5-(tetrahydro-2H-pyran-4-yl)-1H-indol-1-yl)-2-methylcyclopropyl)-1,2,4-oxadiazol-5(4H)-one], the EC50 was determined as 0.24 nM.
For the molecule `Cc1cc(-n2nc3c(c2-n2ccn(-c4ccc(CCS(C)(=O)=O)cc4F)c2=O)[C@H](C)N(C(=O)c2cc4cc(C5CCOCC5)ccc4n2[C@@]2(c4noc(=O)[nH]4)C[C@@H]2C)CC3)cc(C)c1F` [Compound 110a, 3-((1S,2S)-1-(2-((S)-2-(4-fluoro-3,5-dimethylphenyl)-3-(3-(2-fluoro-4-(2-(methylsulfonyl)ethyl)phenyl)-2-oxo-2,3-dihydro-1H-imidazol-1-yl)-4-methyl-4,5,6,7-tetrahydro-2H-pyrazolo[4,3-c]pyridine-5-carbonyl)-5-(tetrahydro-2H-pyran-4-yl)-1H-indol-1-yl)-2-methylcyclopropyl)-1,2,4-oxadiazol-5(4H)-one], the EC50 is 0.05 nM.
Still for that read-out and setting: the same measure for `CCS(=O)(=O)C(C)c1ccc(-n2ccn(-c3c4c(nn3-c3cc(C)c(F)c(C)c3)CCN(C(=O)c3cc5cc(C6CCOCC6)ccc5n3[C@@]3(c5noc(=O)[nH]5)C[C@@H]3C)[C@H]4C)c2=O)c(F)c1` (stereo partly drawn) [Compound 111a, 3-((1S,2S)-1-(2-((4S)-3-(3-(4-(1-(ethylsulfonyl)ethyl)-2-fluorophenyl)-2-oxo-2,3-dihydro-1H-imidazol-1-yl)-2-(4-fluoro-3,5-dimethylphenyl)-4-methyl-4,5,6,7-tetrahydro-2H-pyrazolo[4,3-c]pyridine-5-carbonyl)-5-(tetrahydro-2H-pyran-4-yl)-1H-indol-1-yl)-2-methylcyclopropyl)-1,2,4-oxadiazol-5(4H)-one]: 0.32 nM; for `CCS(=O)(=O)Cc1ccc(-n2ccn(-c3c4c(nn3-c3cc(C)c(F)c(C)c3)CCN(C(=O)c3cc5cc(C6CCOCC6)ccc5n3C3(c5noc(=O)[nH]5)CC3)[C@H]4C)c2=O)cc1` [Compound 112a, (S)-3-(1-(2-(3-(3-(4-((ethylsulfonyl)methyl)phenyl)-2-oxo-2,3-dihydro-1H-imidazol-1-yl)-2-(4-fluoro-3,5-dimethylphenyl)-4-methyl-4,5,6,7-tetrahydro-2H-pyrazolo[4,3-c]pyridine-5-carbonyl)-5-(tetrahydro-2H-pyran-4-yl)-1H-indol-1-yl)cyclopropyl)-1,2,4-oxadiazol-5(4H)-one]: 0.17 nM.

The assay is the same for the next values; noted with them: HEK293/CRE-Luc cell line (HDB) stably expressing GLP-1 Receptor; 30 min incubation at 37° C.; read-out: GLP1R cAMP Stimulation DR: pEC50 (M) [Species: Human, Assay Cell Line: HDB] (converted).
On to `Cc1cc(-n2nc3c(c2-n2ccn(-c4ccc(CS(C)(=O)=O)cc4)c2=O)[C@H](C)N(C(=O)c2cc4cc(C5CCOCC5)ccc4n2[C@@]2(c4noc(=O)[nH]4)C[C@@H]2C)CC3)cc(C)c1F` [Compound 101a, 3-((1S,2S)-1-(2-((S)-2-(4-fluoro-3,5-dimethylphenyl)-4-methyl-3-(3-(4-((methylsulfonyl)methyl)phenyl)-2-oxo-2,3-dihydro-1H-imidazol-1-yl)-4,5,6,7-tetrahydro-2H-pyrazolo[4,3-c]pyridine-5-carbonyl)-5-(tetrahydro-2H-pyran-4-yl)-1H-indol-1-yl)-2-methylcyclopropyl)-1,2,4-oxadiazol-5(4H)-one], for which the EC50 was 0.0316 nM.
On the same count and under the same terms, the same measure for `Cc1cc(-n2nc3c(c2-n2ccn(-c4ccc(N5CCCS5(=O)=O)cc4)c2=O)[C@H](C)N(C(=O)c2cc4cc(C5CCOCC5)ccc4n2[C@@]2(c4noc(=O)[nH]4)C[C@@H]2C)CC3)cc(C)c1F` [Compound 107a, 3-((1S,2S)-1-(2-((S)-3-(3-(4-(1,1-dioxidoisothiazolidin-2-yl)phenyl)-2-oxo-2,3-dihydro-1H-imidazol-1-yl)-2-(4-fluoro-3,5-dimethylphenyl)-4-methyl-4,5,6,7-tetrahydro-2H-pyrazolo[4,3-c]pyridine-5-carbonyl)-5-(tetrahydro-2H-pyran-4-yl)-1H-indol-1-yl)-2-methylcyclopropyl)-1,2,4-oxadiazol-5(4H)-one]: 0.17 nM.

These data come from patent US20230322771A1, “HETEROCYCLIC GLP-1 AGONISTS” (Gasherbrum Bio, Inc., priority 2020, published 2023).
